Tests used:
[1] = 101.33 kPa, Liquid, transient hot wire
[2] = wn = mass fraction of the nth substance listed; conditions: 100 kPa, Liquid, transient hot wire

CCO [ethanol]
[1]
Conditions | thermal conductivity [W/m/K]
276.51 K | 0.1719
287.55 K | 0.1677
297.25 K | 0.1645
307.16 K | 0.1617

CCCCCCCCCC(=O)OC [methyl decanoate] + CCCCCO
[2]
Conditions | thermal conductivity [W/m/K]
287.96 K, w1 = 0.1941 | 0.1495
287.96 K, w1 = 0.4008 | 0.1482
287.97 K, w1 = 0.6035 | 0.1467
288 K, w1 = 0.8002 | 0.1456
297.72 K, w1 = 0.1941 | 0.1477
297.73 K, w1 = 0.4008 | 0.1463
297.76 K, w1 = 0.6035 | 0.1453
297.85 K, w1 = 0.8002 | 0.1433
307.69 K, w1 = 0.8002 | 0.1414
307.72 K, w1 = 0.6035 | 0.1432
307.74 K, w1 = 0.4008 | 0.144
307.77 K, w1 = 0.1941 | 0.1451
317.73 K, w1 = 0.4008 | 0.142
317.74 K, w1 = 0.8002 | 0.1396
317.81 K, w1 = 0.6035 | 0.1406
317.86 K, w1 = 0.1941 | 0.1433
327.58 K, w1 = 0.4008 | 0.1405
327.66 K, w1 = 0.6035 | 0.1386
327.75 K, w1 = 0.8002 | 0.1366
327.82 K, w1 = 0.1941 | 0.1408
337.54 K, w1 = 0.8002 | 0.1347
337.6 K, w1 = 0.1941 | 0.1391
337.61 K, w1 = 0.6035 | 0.1361
337.76 K, w1 = 0.4008 | 0.1373
347.58 K, w1 = 0.4008 | 0.1356
347.61 K, w1 = 0.8002 | 0.1315
347.79 K, w1 = 0.1941 | 0.1367
347.85 K, w1 = 0.6035 | 0.1336
357.66 K, w1 = 0.4008 | 0.1333
357.7 K, w1 = 0.6035 | 0.132
357.75 K, w1 = 0.8002 | 0.1299
357.76 K, w1 = 0.1941 | 0.1345

CCCCCCCCCC(=O)OC [methyl decanoate] + CCCCO
[2]
Conditions | thermal conductivity [W/m/K]
287.9 K, w1 = 0.2001 | 0.1497
287.95 K, w1 = 0.8003 | 0.146
287.98 K, w1 = 0.599 | 0.1468
288.35 K, w1 = 0.4002 | 0.1476
297.66 K, w1 = 0.4002 | 0.1458
297.69 K, w1 = 0.2001 | 0.1473
297.81 K, w1 = 0.8003 | 0.1436
298 K, w1 = 0.599 | 0.1441
307.7 K, w1 = 0.2001 | 0.145
307.74 K, w1 = 0.4002 | 0.1436
307.81 K, w1 = 0.599 | 0.1427
307.86 K, w1 = 0.8003 | 0.1412
317.55 K, w1 = 0.2001 | 0.1431
317.7 K, w1 = 0.8003 | 0.1395
317.74 K, w1 = 0.4002 | 0.1418
317.81 K, w1 = 0.599 | 0.1403
327.62 K, w1 = 0.2001 | 0.1398
327.73 K, w1 = 0.4002 | 0.1388
327.78 K, w1 = 0.599 | 0.1382
327.78 K, w1 = 0.8003 | 0.137
337.59 K, w1 = 0.2001 | 0.1379
337.59 K, w1 = 0.4002 | 0.1372
337.66 K, w1 = 0.599 | 0.136
337.78 K, w1 = 0.8003 | 0.1346
347.49 K, w1 = 0.2001 | 0.1363
347.58 K, w1 = 0.599 | 0.1339
347.73 K, w1 = 0.4002 | 0.135
347.8 K, w1 = 0.8003 | 0.1318
357.56 K, w1 = 0.2001 | 0.1337
357.68 K, w1 = 0.4002 | 0.1325
357.71 K, w1 = 0.599 | 0.1317
357.76 K, w1 = 0.8003 | 0.13

CCCCCCCCCC(=O)OC [methyl decanoate] + CCCO
[2]
Conditions | thermal conductivity [W/m/K]
287.88 K, w1 = 0.2022 | 0.1527
287.9 K, w1 = 0.4008 | 0.1495
287.9 K, w1 = 0.5998 | 0.1481
287.98 K, w1 = 0.7993 | 0.1462
297.73 K, w1 = 0.2022 | 0.1501
297.73 K, w1 = 0.7993 | 0.1442
297.77 K, w1 = 0.4008 | 0.1473
297.95 K, w1 = 0.5998 | 0.1454
307.71 K, w1 = 0.2022 | 0.1479
307.75 K, w1 = 0.4008 | 0.1453
307.77 K, w1 = 0.7993 | 0.142
307.81 K, w1 = 0.5998 | 0.1435
317.64 K, w1 = 0.2022 | 0.1459
317.69 K, w1 = 0.4008 | 0.1426
317.74 K, w1 = 0.7993 | 0.1397
317.81 K, w1 = 0.5998 | 0.1414
327.55 K, w1 = 0.2022 | 0.1433
327.56 K, w1 = 0.5998 | 0.1394
327.59 K, w1 = 0.4008 | 0.1408
327.67 K, w1 = 0.7993 | 0.1374
337.58 K, w1 = 0.2022 | 0.1412
337.62 K, w1 = 0.5998 | 0.1371
337.68 K, w1 = 0.7993 | 0.1351
337.72 K, w1 = 0.4008 | 0.138
347.56 K, w1 = 0.2022 | 0.1382
347.64 K, w1 = 0.4008 | 0.136
347.65 K, w1 = 0.5998 | 0.1348
347.65 K, w1 = 0.7993 | 0.1328
357.48 K, w1 = 0.2022 | 0.1362
357.48 K, w1 = 0.7993 | 0.1299
357.51 K, w1 = 0.5998 | 0.1328
357.57 K, w1 = 0.4008 | 0.1341

O [water]
[1]
Conditions | thermal conductivity [W/m/K]
299.55 K | 0.613
309.44 K | 0.6207
319.56 K | 0.6399
339.38 K | 0.653
349.82 K | 0.6704

From the NIST ThermoML archive (doi:10.1016/j.fluid.2019.112263)
